# Data: PubChem BioAssay (NCI)
#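 Protocol summary: plate cells (96-well), add compound at 5 concentrations, incubate 48 h, interpolate endpoints linearly. Abbreviation: GI50, concentration required for 50% inhibition of growth. TGI is the concentration that stops growth completely.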
# Key:
# Assay in all cases: DTP human tumour cell line panel, 48 h
# NCI-H522 lung = system: NCI-H522 lung
# NCI-H226 lung = system: NCI-H226 lung
# MALME-3M melanoma = system: MALME-3M melanoma
# SW-620 colon = system: SW-620 colon
# HOP-92 NSCLC = system: HOP-92 NSCLC
# HOP-62 NSCLC = system: HOP-62 NSCLC
# SK-OV-3 ovarian = system: SK-OV-3 ovarian
# MDA-MB-435 = system: MDA-MB-435
# SF-295 CNS = system: SF-295 CNS
# SNB-19 CNS = system: SNB-19 CNS
Compound,GI50 (NCI-H522 lung) [µM],TGI (NCI-H522 lung) [µM],GI50 (NCI-H226 lung) [µM],TGI (NCI-H226 lung) [µM],GI50 (MALME-3M melanoma) [µM],TGI (MALME-3M melanoma) [µM],GI50 (SW-620 colon) [µM],TGI (SW-620 colon) [µM],GI50 (HOP-92 NSCLC) [µM],TGI (HOP-92 NSCLC) [µM],GI50 (HOP-62 NSCLC) [µM],TGI (HOP-62 NSCLC) [µM],GI50 (SK-OV-3 ovarian) [µM],TGI (SK-OV-3 ovarian) [µM],GI50 (MDA-MB-435) [µM],TGI (MDA-MB-435) [µM],GI50 (SF-295 CNS) [µM],TGI (SF-295 CNS) [µM],GI50 (SNB-19 CNS) [µM],TGI (SNB-19 CNS) [µM]
C=C1C[C@](OC)([C@H](O)C(=O)N[C@@H](OC)[C@@H]2C[C@@H](O)C(C)(C)[C@@H](C[C@@H](COC)OC)O2)O[C@H](C)[C@@H]1C,0.00194,0.00725,0.00202,0.00582,0.000693,0.00343,0.00157,0.00508,0.00286,0.00889,0.00211,0.0102,0.00194,0.0078,0.00162,0.00507,0.000353,0.00181,0.00149,0.00645
CCOC(=O)c1sc2nc3sc(N=Nc4ccc(Cl)cc4)c(O)n3c(=S)c2c1C,38.8,> 100,–,21.6,34.9,95,35.4,> 100,7.47,45.8,30.3,> 100,31,> 100,35.2,> 100,31,> 100,27.4,> 100
NS(=O)(=O)c1cc2c(cc1Cl)NC(Cc1ccccc1)NS2(=O)=O (stereo not drawn),–,> 100,–,> 100,–,> 100,–,> 100,–,> 100,–,> 100,–,> 100,–,> 100,–,> 100,–,> 100
NC(=NCCCOc1ccc(Cl)cc1)Nc1ccc(Cl)cc1,2.05,4.8,3.97,19.6,1.95,4.14,1.94,5.59,1.51,5.53,2.53,8.01,3.31,12.3,1.76,3.37,2.42,6.9,2.46,13.6
CC(C)[C@@]12C[C@@H](OC(=O)[C@H]3CO3)[C@@](C)(O1)[C@@H]1CC[C@@H](C)[C@H]1[C@@H]2OC(=O)/C=C/c1ccccc1,14.3,32.7,13.8,32.2,13.9,30,29.9,> 100,9.22,27.1,33.2,> 100,18.2,45.8,20.6,> 73.5,15.3,35.5,21.6,74.6
C/C(=N\NC(=O)c1ccncc1)c1ccc2ccccc2c1O,–,12.4,–,12.1,–,43.2,–,> 100,–,> 100,–,> 72.7,–,> 60.7,–,> 100,–,20.7,–,> 100
CC(=O)Nc1ccc(Sc2ccc([N+](=O)[O-])o2)cc1,0.214,0.711,2.88,8.7,2.09,4.77,0.767,2.22,1.76,3.55,3.37,10.5,8.37,20.6,1.7,3.44,10.4,23.5,10.1,23.2
COc1ccc(C(=O)c2ccc(OC)c(OC)c2OC)cc1,1.81,6.03,34.7,> 100,1.77,> 100,0.377,> 100,5.4,> 100,2.39,> 100,2.06,13.1,0.2,0.525,0.956,5.07,4.87,> 100
C1CCN(CCC2CCCCN2)CC1 (stereo not drawn),–,> 100,–,> 100,–,> 100,–,> 100,–,> 100,–,> 100,–,> 100,–,> 100,–,> 100,–,> 100
CCCCCCCC/C=C/CCCCCCCC1=NCC[N+]1(CCO)CCO,1.61,4.46,4.16,19.8,3.19,12.4,1.82,4.38,1.62,5.53,6.36,19.8,10.1,24.4,2.35,7.95,1.75,4.07,4.49,25.2
C=C(C)[C@@H]1CC[C@]2(C)[C@H](C(=O)C=C3[C@@H]4C[C@](C)(C(=O)N5CCN(C)CC5)CC[C@]4(C)CC[C@]32C)[C@@]1(C)CCC#N,7.21,15.3,7.42,15.9,3.94,10.6,6.99,14.9,3.25,10.2,6.33,13.3,6.03,12.5,7.33,14.2,7.75,15.2,7.87,14.9
COc1cc(NCCCCN=C(N)NC(N)=NC(C)C)c2ncccc2c1,0.929,3.93,27,> 100,1.14,4.6,5.76,22.2,1.28,12.5,13.7,28.6,34.4,> 100,12.9,26.7,23,> 91.1,9.86,26.3
O=P(O)(O)c1ccccc1 (tested in a mixture with another compound),–,> 100,–,> 100,–,> 100,–,> 100,–,> 100,–,> 100,–,> 100,–,> 100,–,> 100,–,> 100
CCN(CC)CCCNc1cccc2c(SCc3ccccc3)ccnc12,1.51,3.1,3.45,15.6,2.13,4,1.7,3.46,2.18,7.32,1.61,3.05,2.02,4.51,1.84,3.65,1.8,3.48,1.83,3.89
COc1cccc(C2C(C#N)=C(N)Oc3cc(N)ccc32)c1 (stereo not drawn),0.242,0.771,5.52,> 100,0.632,> 100,0.312,> 100,0.31,58.3,0.692,> 100,0.4,3.5,0.138,0.672,0.376,> 100,–,> 100
CCn1c2c(n(CC)c1=S)-c1c(n(CC)c(=S)n1CC)SSSS2,–,3.76,–,52.2,–,9.08,–,3.29,–,9.71,–,> 100,–,98.9,–,27.5,–,> 80.3,–,> 100
CCSCC(N)C(=O)O (stereo not drawn),–,> 100,–,> 100,–,> 100,–,> 100,–,> 100,–,> 100,–,> 100,–,> 100,–,> 100,–,> 100
Cc1cc2cc3cc(C)c(N(C)C)cc3nc2cc1N(C)C,3.76,30,3.19,24,3.53,19,3.1,26.6,1.83,8.36,5.08,19.9,2.87,25.4,2.77,11.8,1.81,8.52,3.56,> 100
CC(=O)c1c(C(F)(F)F)n([O-])c2ccc(Cl)cc2[n+]1=O,2.5,9.62,1.4,3.43,1.84,3.73,1.17,–,1.23,2.9,0.49,1.86,6.65,19.9,2.8,9.94,2.23,5.92,4.75,> 27.6
CN(C)c1ccc(/C=C(/NC(=O)c2ccccc2)c2nc3ccc(Cl)cc3[nH]2)cc1,–,> 74.1,–,> 85.1,–,> 82.9,–,> 60.5,–,80.1,–,> 100,–,> 100,29.8,> 100,–,> 87.3,–,> 100
